Laboratory results: US10023557B2 (LifeSci Pharmaceuticals, Inc., priority 2015, dated 2018)

target: human plasma kallikrein (Homo sapiens (Human), UniProt P03952); test: In vitro enzyme inhibition of human plasma kallikrein (PFR-AMC cleavage); format: biochemical; conditions: Pro-Phe-Arg-AMC substrate, 37° C., read-out: hPK IC50
Method in brief: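 Human plasma kallikrein and compound, diluted in 50 mM Tris-HCl pH 7.5, 150 mM NaCl, 0.01% Triton X-100, preincubated 5 min at 37 °C before PFR-AMC was added.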

human plasma kallikrein, sequence (P03952 391-638): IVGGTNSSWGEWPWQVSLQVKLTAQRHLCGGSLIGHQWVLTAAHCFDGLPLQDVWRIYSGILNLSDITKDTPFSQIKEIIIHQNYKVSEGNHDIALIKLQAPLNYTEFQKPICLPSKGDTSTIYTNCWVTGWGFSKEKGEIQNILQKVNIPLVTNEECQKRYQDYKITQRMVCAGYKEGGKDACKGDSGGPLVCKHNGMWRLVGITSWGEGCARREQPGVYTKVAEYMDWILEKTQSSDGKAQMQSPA
human plasma kallikrein, sequence (P03952 20-390 partner): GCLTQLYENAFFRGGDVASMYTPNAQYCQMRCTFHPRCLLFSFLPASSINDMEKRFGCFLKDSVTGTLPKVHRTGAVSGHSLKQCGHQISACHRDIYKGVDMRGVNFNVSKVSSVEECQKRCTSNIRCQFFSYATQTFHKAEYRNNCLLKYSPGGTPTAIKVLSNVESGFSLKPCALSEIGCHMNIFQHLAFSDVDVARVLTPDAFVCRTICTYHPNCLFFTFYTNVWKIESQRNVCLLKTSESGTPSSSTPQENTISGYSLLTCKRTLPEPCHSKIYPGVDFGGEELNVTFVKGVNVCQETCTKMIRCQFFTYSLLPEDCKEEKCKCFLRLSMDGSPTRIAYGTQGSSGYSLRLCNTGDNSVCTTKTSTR

With `Cc1nc2ccc(Cc3cc(C(=O)NCc4ccc(N)nc4C)ccn3)cc2cc1Cl` [Example 239, N-((6-amino-2-methylpyridin-3-yl)methyl)-2-((3-chloro-2-methylquinolin-6-yl)methyl)isonicotinamide] as the molecule, how does the IC50 read?
Its IC50 is less than 100 nM.

How did the IC50 turn out when `Cc1cc(N)nc(C)c1CNC(=O)c1ccnc(Cc2cnc3cc(F)c(Cl)cc3c2)c1` [Example 226, N-((6-amino-2,4-dimethylpyridin-3-yl)methyl)-2-((6-chloro-7-fluoroquinolin-3-yl)methyl)isonicotinamide] was run?
Its IC50 is less than 100 nM.

How did the IC50 turn out when `CCCc1cnc2ccc(Cc3cc(C(=O)NCc4c(C)cc(N)nc4C)ccn3)cc2c1` [Example 255, N-((6-amino-2,4-dimethylpyridin-3-yl)methyl)-2-((3-propylquinolin-6-yl)methyl)isonicotinamide] was run?
The IC50 was less than 100 nM.

With `Cc1cc(N)nc(C)c1CNC(=O)c1ccnc(Cc2ccc3ncc(C(F)(F)F)cc3c2)c1` [Example 228, N-((6-amino-2,4-dimethylpyridin-3-yl)methyl)-2-((3-(trifluoromethyl)quinolin-6-yl)methyl)isonicotinamide] as the molecule, how does the IC50 read?
Its IC50 is less than 100 nM.

How did the IC50 turn out when `Cc1cc(N)nc(C)c1CNC(=O)c1ccnc(Cc2cnc3ncc(Cl)cc3c2)c1` [Example 204, N-((6-amino-2,4-dimethylpyridin-3-yl)methyl)-2-((6-chloro-1,8-naphthyridin-3-yl)methyl)isonicotinamide] was run?
The IC50 was less than 100 nM.

Which IC50 does the source give for `Cc1cnc2c(C(C)(C)O)cc(Cc3cc(C(=O)NCc4n[nH]c5ccc(Cl)cc45)ccn3)cc2c1` [Example 317, N-((5-chloro-1H-indazol-3-yl)methyl)-2-((8-(2-hydroxypropan-2-yl)-3-methylquinolin-6-yl)methyl)isonicotinamide] here?
Its IC50 is less than 100 nM.

For `Cc1cnc2c(C(C)(C)O)cc(Cc3cc(C(=O)NCc4ccc5[nH]cc(Cl)c5c4F)ccn3)cc2c1` [Example 315, N-((3-chloro-4-fluoro-1H-indol-5-yl)methyl)-2-((8-(2-hydroxypropan-2-yl)-3-methylquinolin-6-yl)methyl)isonicotinamide], which IC50 is on record?
The IC50 was less than 100 nM.

For `Cc1cc(N)nc(C)c1CNC(=O)c1ccnc(Cc2ccc3ncc(C(N)=O)cc3c2)c1` [Example 250, 6-((4-(((6-amino-2,4-dimethylpyridin-3-yl)methyl)carbamoyl)pyridin-2-yl)methyl)quinoline-3-carboxamide], which IC50 is on record?
The IC50 was 100 to 1000 nM.

`O=C(NCc1c[nH]c2ccc(Cl)cc12)c1ccnc(Cc2ccc3ncc(Cl)cc3c2)c1` [Example 268, N-((5-chloro-1H-indol-3-yl)methyl)-2-((3-chloroquinolin-6-yl)methyl)isonicotinamide] was tested. Which IC50 did it give?
The IC50 was 100 to 1000 nM.

For `Cc1ccn2nnc(CNC(=O)c3ccnc(Cc4ccc5ncc(Cl)cc5c4)c3)c2c1` [Example 155, 2-((3-chloroquinolin-6-yl)methyl)-N-((5-methyl-[1,2,3]triazolo[1,5-a]pyridin-3-yl)methyl)isonicotinamide], which IC50 is on record?
The IC50 was 100 to 1000 nM.

With `O=C(NCc1cc2c(Cl)c[nH]c2cc1F)c1ccnc(Cc2ccc3ncc(N4CCNCC4)cc3c2)c1` [Example 313, N-((3-chloro-6-fluoro-1H-indol-5-yl)methyl)-2-((3-(piperazin-1-yl)quinolin-6-yl)methyl)isonicotinamide] as the molecule, how does the IC50 read?
The IC50 was 1000 to 10000 nM.

Which IC50 does the source give for `NCc1ccc(CNC(=O)c2ccnc(Cc3ccc4ncc(Cl)cc4c3)c2)cc1` [Example 168, N-(4-(aminomethyl)benzyl)-2-((3-chloroquinolin-6-yl)methyl)isonicotinamide] here?
The IC50 was 100 to 1000 nM.

`Cc1cc(N)nc(C)c1CNC(=O)c1cc(Cc2ccc3ncc(Cl)cc3c2)nc(-c2n[nH]c(=O)[nH]2)c1` [Example 196, N-((6-amino-2,4-dimethylpyridin-3-yl)methyl)-2-((3-chloroquinolin-6-yl)methyl)-6-(5-oxo-4,5-dihydro-1H-1,2,4-triazol-3-yl)isonicotinamide] was tested. Which IC50 did it give?
Its IC50 is less than 100 nM.

`O=C(NCc1cc2c(Cl)c[nH]c2cc1F)c1ccnc(Cc2ccc3ncc(N4CCC4)cc3c2)c1` [Example 320, 2-((3-(azetidin-1-yl)quinolin-6-yl)methyl)-N-((3-chloro-6-fluoro-1H-indol-5-yl)methyl)isonicotinamide] was tested. Which IC50 did it give?
The IC50 was less than 100 nM.

How did the IC50 turn out when `Cc1cnc2c(C(C)(C)O)cc(Cc3cc(C(=O)NCc4cnc5[nH]cc(Cl)c5c4)ccn3)cc2c1` [Example 316, N-((3-chloro-1H-pyrrolo[2,3-b]pyridin-5-yl)methyl)-2-((8-(2-hydroxypropan-2-yl)-3-methylquinolin-6-yl)methyl)isonicotinamide] was run?
The IC50 was less than 100 nM.

For `Cc1cc(C(C)N)nc(C)c1CNC(=O)c1ccnc(Cc2ccc3ncc(Cl)cc3c2)c1` (stereo not drawn) [Example 173, N-((6-(1-aminoethyl)-2,4-dimethylpyridin-3-yl)methyl)-2-((3-chloroquinolin-6-yl)methyl)isonicotinamide], which IC50 is on record?
The IC50 was 1000 to 10000 nM.

How did the IC50 turn out when `O=C(NCc1ccc2[nH]nc(C(F)(F)F)c2c1)c1ccnc(Cc2ccc3ncc(Cl)cc3c2)c1` [Example 267, 2-((3-chloroquinolin-6-yl)methyl)-N-((3-(trifluoromethyl)-1H-indazol-5-yl)methyl)isonicotinamide] was run?
Its IC50 is 1000 to 10000 nM.

`Cc1cc(N)nc(C)c1CNC(=O)c1ccnc(Cn2ncc3cc(Cl)cnc32)c1` [Example 202, N-((6-amino-2,4-dimethylpyridin-3-yl)methyl)-2-((5-chloro-1H-pyrazolo[3,4-b]pyridin-1-yl)methyl)isonicotinamide] was tested. Which IC50 did it give?
The IC50 was 100 to 1000 nM.

For `COCCNc1ccc(CNC(=O)c2ccnc(Cc3ccc4ncc(Cl)cc4c3)c2)c(C)n1` [Example 242, 2-((3-chloroquinolin-6-yl)methyl)-N-((6-((2-methoxyethyl)amino)-2-methylpyridin-3-yl)methyl)isonicotinamide], which IC50 is on record?
The IC50 was 100 to 1000 nM.

`Cc1nc(N)cc(C#N)c1CNC(=O)c1ccnc(Cc2ccc3ncc(Cl)cc3c2)c1` [Example 167, N-((6-amino-4-cyano-2-methylpyridin-3-yl)methyl)-2-((3-chloroquinolin-6-yl)methyl)isonicotinamide] was tested. Which IC50 did it give?
Its IC50 is greater than 10000 nM.

target: cellular kallikrein activity (Homo sapiens (Human), UniProt P03952); test: In vitro cellular assay (contact assay): kallikrein activity in ellagic acid-activated human plasma, Z-FR-2-AMC substrate; format: biochemical; conditions: human plasma activated with ellagic acid, 37° C.
Sequence (P03952 391-638): as the sequence (P03952 391-638) above
Sequence (P03952 20-390 partner): as the sequence (P03952 20-390 partner) above
Description: The ability of the compounds disclosed herein to inhibit cellular kallikrein activity was quantified and the respective EC50 value was determined.
All dilutions were prepared in an assay buffer comprising 50 mM Tris-HCl pH 7.2, 150 mM NaCl, and 0.01% Triton X-100.
The ten solutions of the test compounds, prepared by serial dilution, were further diluted 50-fold in the assay buffer.
Human plasma is thawed on ice and centrifuged for 15 min at 4° C. to remove platelets. A 1 mM stock solution of ellagic acid is diluted to 8 μM and mixed with human plasma, after removing platelets, at a ratio of 1:0.8.
A 22.5 μL volume of the final mixture of human plasma and ellagic acid was added to a 96-well microwell plate and the plate was incubated for 15 min at 37° C.
The CINH inhibitor at various concentrations, prepared by serial dilutions as described above, were added to the inhibitor control wells. […] Each CINH concentration is tested in duplicates.
The test compounds at various concentrations, also prepared by serial dilutions as described above, are added to the test wells. […] Each test compound concentration was tested in duplicates.
In addition to the inhibitor control and test wells, the 96 well assay plate includes positive control wells which contained the mixture of human plasma and ellagic acid without C1NH inhibitor or test compounds, and background wells which contained neither the mixture of human plasma and ellagic acid nor the test compounds. The total volume of liquid in positive control and background wells was brought up to 35 μL, using the assay buffer.
The assay plate containing C1NH inhibitors and test compounds mixed with human plasma and ellagic acid and appropriate controls was incubated at 37° C. for 5 min. […] The reagents were mixed well by shaking the plate gently for 30 sec.
The enzyme reaction was quantified by immediate kinetic reading of the assay plate using excitation/emission wavelengths of 330 nm/440 nm respectively. Fluorescence intensity was recorded for 60 min, using a time interval of 43 sec.
The inhibition activity of the test compounds were evaluated using the EC50 values, calculated according to the dose-response curve of the test compounds, fitted using the “log(inhibitor)−response (variable slope)” equation in GraphPadPrism software (GraphPad Software, Inc.).
The percentage inhibition was calculated using the following equation:
[formula] where, Mean (BG) is the average value of the fluorescence intensity of the background wells and Mean (PC) is the average value of the fluorescence intensity of the positive control wells.
Table 4 provides the EC50 values of various compounds disclosed herein.

Which EC50 does the source give for `Cc1nc2ccc(Cc3cc(C(=O)NCc4ccc(N)nc4C)ccn3)cc2cc1Cl` [Example 239, N-((6-amino-2-methylpyridin-3-yl)methyl)-2-((3-chloro-2-methylquinolin-6-yl)methyl)isonicotinamide] here?
The EC50 was 100 to 1000 nM.

`Cc1cc(N)nc(C)c1CNC(=O)c1ccnc(Cc2cnc3cc(F)c(Cl)cc3c2)c1` [Example 226, N-((6-amino-2,4-dimethylpyridin-3-yl)methyl)-2-((6-chloro-7-fluoroquinolin-3-yl)methyl)isonicotinamide] was tested. Which EC50 did it give?
Its EC50 is less than 100 nM.

Which EC50 does the source give for `CCCc1cnc2ccc(Cc3cc(C(=O)NCc4c(C)cc(N)nc4C)ccn3)cc2c1` [Example 255, N-((6-amino-2,4-dimethylpyridin-3-yl)methyl)-2-((3-propylquinolin-6-yl)methyl)isonicotinamide] here?
Its EC50 is less than 100 nM.

How did the EC50 turn out when `Cc1cc(N)nc(C)c1CNC(=O)c1ccnc(Cc2ccc3ncc(C(F)(F)F)cc3c2)c1` [Example 228, N-((6-amino-2,4-dimethylpyridin-3-yl)methyl)-2-((3-(trifluoromethyl)quinolin-6-yl)methyl)isonicotinamide] was run?
The EC50 was less than 100 nM.

How did the EC50 turn out when `Cc1cc(N)nc(C)c1CNC(=O)c1ccnc(Cc2cnc3ncc(Cl)cc3c2)c1` [Example 204, N-((6-amino-2,4-dimethylpyridin-3-yl)methyl)-2-((6-chloro-1,8-naphthyridin-3-yl)methyl)isonicotinamide] was run?
Its EC50 is less than 100 nM.

How did the EC50 turn out when `Cc1cc(N)nc(C)c1CNC(=O)c1ccnc(Cc2ccc3c(cc(Cl)c[n+]3[O-])c2)c1` [Example 99, 6-((4-(((6-amino-2,4-dimethylpyridin-3-yl)methyl)carbamoyl)pyridin-2-yl)methyl)-3-chloroquinoline 1-oxide] was run?
Its EC50 is less than 100 nM.

With `Cc1cc(C(=O)NCc2c(C)cc(N)nc2C)cc(Cc2ccc3ncc(Cl)cc3c2)n1` [Example 104, N-((6-amino-2,4-dimethylpyridin-3-yl)methyl)-2-((3-chloroquinolin-6-yl)methyl)-6-methylisonicotinamide] as the molecule, how does the EC50 read?
Its EC50 is less than 100 nM.

Which EC50 does the source give for `Cc1nc(N)ccc1CNC(=O)c1ccnc(Cc2cc(CO)c3ncc(Cl)cc3c2)c1` [Example 97, N-((6-amino-2-methylpyridin-3-yl)methyl)-2-((3-chloro-8-(hydroxymethyl)quinolin-6-yl)methyl)isonicotinamide] here?
The EC50 was less than 100 nM.

For `Cc1cc(N)nc(C)c1CNC(=O)c1cc(Cc2ccc3ncc(Cl)cc3c2)nc(C(=O)O)c1` [Example 209, 4-((6-amino-2,4-dimethylpyridin-3-yl)methylcarbamoyl)-6-((3-chloroquinolin-6-yl)methyl)picolinic acid], which EC50 is on record?
The EC50 was 100 to 1000 nM.

Which EC50 does the source give for `COC(=O)c1cc(Cc2cc(C(=O)NCc3c(C)cc(N)nc3C)ccn2)cc2cc(Cl)cnc12` [Example 92, methyl 6-((4-(((6-amino-2,4-dimethylpyridin-3-yl)methyl)carbamoyl)pyridin-2-yl)methyl)-3-chloroquinoline-8-carboxylate] here?
Its EC50 is less than 100 nM.

How did the EC50 turn out when `Cc1nc(N)ccc1CNC(=O)c1ccnc(Cc2cc(Cl)c3ncc(Cl)cc3c2)c1` [Example 101, N-((6-amino-2-methylpyridin-3-yl)methyl)-2-((3,8-dichloroquinolin-6-yl)methyl)isonicotinamide] was run?
The EC50 was less than 100 nM.

`Cc1cc(N)nc(C)c1CNC(=O)c1ccnc(Cc2cc(C(=O)O)c3ncc(Cl)cc3c2)c1` [Example 93, 6-((4-(((6-amino-2,4-dimethylpyridin-3-yl)methyl)carbamoyl)pyridin-2-yl)methyl)-3-chloroquinoline-8-carboxylic acid] was tested. Which EC50 did it give?
The EC50 was less than 100 nM.

`Cc1cc(N)nc(C)c1CNC(=O)c1ccnc(Cc2ccc3ncc(Cl)cc3c2F)c1` [Example 102, N-((6-amino-2,4-dimethylpyridin-3-yl)methyl)-2-((3-chloro-5-fluoroquinolin-6-yl)methyl)isonicotinamide] was tested. Which EC50 did it give?
The EC50 was 100 to 1000 nM.
